Reference: ChEMBL document CHEMBL5352446, “Synthesis and biological evaluation of a novel c-Myc inhibitor against colorectal cancer via blocking c-Myc/Max heterodimerization and disturbing its DNA binding” (Eur J Med Chem, 2022)
Calls of active or inactive are those of the source. No cut-off for these calls is given here.

Tests used:
HT-29 [1] = test: Induction of apoptosis in human HT-29 cells assessed as early apoptotic cells at 10 uM incubated for 24 hrs by FITC Annexin-V and PI staining based flow cytometry analysis (reference value: 2.15%); assay type: functional
L02 = test: Cytotoxicity against human L02 cells incubated for 72 hrs by MTT assay; assay type: toxicity, cell-based; conditions: l02, 72 h
HT-29 [2] = test: Downregulation of c-Myc expression in human HT-29 cells at 10 uM incubated for 24 hrs by Western blot analysis; assay type: functional, cell-based
HT-29 [3] = test: Induction of apoptosis in human HT-29 cells assessed as early apoptotic cells at 5 uM incubated for 24 hrs by FITC Annexin-V and PI staining based flow cytometry analysis (reference value: 2.15%); assay type: functional
HT-29 [4] = test: Induction of cell cycle arrest in human HT-29 cells assessed as accumulation of cells at S phase at 2.5 uM incubated for 24 hrs by propidium iodide staining based flow cytometry analysis (reference value: 12.01 %); assay type: functional
HCT-116 [5] = test: Downregulation of c-Myc expression in human HCT-116 cells incubated for 24 hrs by Western blot analysis; assay type: functional, cell-based; conditions: dose 2.5-10 µM
Homo sapiens = species on record: Homo sapiens; test: Inhibition of human c-Myc (353 to 439 residues)/Max(S) (151 residues) expressed in Escherichia coli BL21(DE3) binding to biotinylated double-stranded DNA oligonucleotide 5'-CACCCGGTCACTGGCCTACAC-3' (unknown origin) at 20 uM preincubated for 90 mins followed by oligonucleotide addition for 25 mins by EMSA; conditions: time 115.0 min
[6] = Toxicity in BALB/c mouse xenografted with human HT-29 cells assessed as heart damage at 40 to 80 mg/kg, ip measured after 21 days by H and E staining based assay; assay type: organism-based; conditions: in vivo, 504 h, dose 40-80 mg/kg, time 21 day
HT-29 [7] = test: Induction of apoptosis in human HT-29 cells assessed as viable cells at 5 uM incubated for 24 hrs by FITC Annexin-V and PI staining based flow cytometry analysis (reference value: 96.94%); assay type: functional; conditions: read-out: Activity
HT-29 [8] = test: Induction of cell cycle arrest in human HT-29 cells assessed as accumulation of cells at G1 phase at 2.5 uM incubated for 24 hrs by propidium iodide staining based flow cytometry analysis (reference value: 65.37 %); assay type: functional
[9] = Toxicity in BALB/c mouse xenografted with human HT-29 cells assessed as spleen damage at 40 to 80 mg/kg, ip measured after 21 days by H and E staining based assay; assay type: organism-based; conditions: in vivo, 504 h, dose 40-80 mg/kg, time 21 day
HT-29 [10] = test: Induction of cell cycle arrest in human HT-29 cells assessed as accumulation of cells at S phase at 5 uM incubated for 24 hrs by propidium iodide staining based flow cytometry analysis (reference value: 12.01 %); assay type: functional
HT-29 [11] = test: Induction of apoptosis in human HT-29 cells assessed as early apoptotic cells at 0.625 uM incubated for 24 hrs by FITC Annexin-V and PI staining based flow cytometry analysis (reference value: 2.15%); assay type: functional
HT-29 [12] = test: Induction of apoptosis in human HT-29 cells assessed as viable cells at 1.25 uM incubated for 24 hrs by FITC Annexin-V and PI staining based flow cytometry analysis (reference value: 96.94%); assay type: functional; conditions: read-out: Activity
HT-29 [13] = test: Induction of apoptosis in human HT-29 cells assessed as upregulation of BAD expression incubated for 24 hrs by Western blot analysis; assay type: functional, cell-based; conditions: dose 2.5-10 µM
HCT-116 [14] = test: Inhibition of colony formation in human HCT-116 cells measured after 14 days by crystal violet staining based assay; assay type: functional, cell-based; conditions: dose 0.25-2 µM, time 14.0 day
[15] = Toxicity in BALB/c mouse xenografted with human HT-29 cells assessed as spleen damage at 40 mg/kg, ip measured after 21 days by H and E staining based assay; assay type: organism-based; conditions: in vivo, 504 h, time 21 day
HT-29 [16] = test: Downregulation of c-Myc expression in human […] cells incubated for 24 hrs by Western blot analysis; assay type: functional, cell-based; conditions: dose 2.5-10 µM
HT-29 [17] = test: Induction of apoptosis in human HT-29 cells assessed as late apoptotic cells at 0.625 uM incubated for 24 hrs by FITC Annexin-V and PI staining based flow cytometry analysis (reference value: 0.78%); assay type: functional
HT-29 [18] = test: Induction of apoptosis in human HT-29 cells assessed as viable cells at 2.5 uM incubated for 24 hrs by FITC Annexin-V and PI staining based flow cytometry analysis (reference value: 96.94%); assay type: functional; conditions: read-out: Activity
HT-29 [19] = test: Inhibition of cell migration in human HT-29 cells incubated for 48 hrs by wound healing analysis; assay type: functional, cell-based
HT-29 [20] = test: Induction of apoptosis in human HT-29 cells assessed as late apoptotic cells at 10 uM incubated for 24 hrs by FITC Annexin-V and PI staining based flow cytometry analysis (reference value: 0.78%); assay type: functional
HT-29 [21] = test: Induction of apoptosis in human HT-29 cells assessed as upregulation of cleaved PARP expression incubated for 24 hrs by Western blot analysis; assay type: functional, cell-based; conditions: dose 2.5-10 µM
HT-29 [22] = test: Induction of cell cycle arrest in human HT-29 cells assessed as accumulation of cells at G1 phase at 0.625 uM incubated for 24 hrs by propidium iodide staining based flow cytometry analysis (reference value: 65.37 %); assay type: functional
HT-29 [23] = test: Induction of apoptosis in human HT-29 cells assessed as necrotic cells at 5 uM incubated for 24 hrs by FITC Annexin-V and PI staining based flow cytometry analysis (reference value: 0.13%); assay type: functional
HT-29 [24] = test: Induction of cell cycle arrest in human HT-29 cells assessed as accumulation of cells at G2 phase at 5 uM incubated for 24 hrs by propidium iodide staining based flow cytometry analysis (reference value: 16.33 %); assay type: functional
HT-29 [25] = test: Inhibition of colony formation in human HT-29 cells measured after 14 days by crystal violet staining based assay; assay type: functional, cell-based; conditions: dose 0.25-2 µM, time 14.0 day
HT-29 [26] = test: Induction of apoptosis in human HT-29 cells assessed as late apoptotic cells at 5 uM incubated for 24 hrs by FITC Annexin-V and PI staining based flow cytometry analysis (reference value: 0.78%); assay type: functional
HCT-116 [27] = test: Inhibition of cell migration in human HCT-116 cells incubated for 48 hrs by wound healing analysis; assay type: functional, cell-based
HT-29 [28] = test: Induction of apoptosis in human HT-29 cells assessed as necrotic cells at 10 uM incubated for 24 hrs by FITC Annexin-V and PI staining based flow cytometry analysis (reference value: 0.13%); assay type: functional

**Q.** With `COc1cc(Oc2ccc(Nc3ccc(CCCO)cc3)cc2)cc(OC)c1CNCCc1ccc(C(F)(F)F)cc1` as the compound, how does the Activity (HT-29 [1]) read?
**A.** 29.06%

**Q.** And the Activity (L02)?
**A.** Non-Toxic

**Q.** And the Activity (HT-29 [2])?
**A.** Active

**Q.** What about the Activity (HT-29 [3]) of the same compound?
**A.** 22.05%

**Q.** What about the Activity (HT-29 [4]) of the same compound?
**A.** 14.32%

**Q.** And the Activity (HCT-116 [5])?
**A.** Dose-Dependent Effect

**Q.** And the inhibition (Homo sapiens)?
**A.** 100%

**Q.** What about the Activity [6] of the same compound?
**A.** Non-Toxic

**Q.** What about the viability at 5 µM (HT-29 [7]) of the same compound?
**A.** 69%

**Q.** And the Activity (HT-29 [8])?
**A.** 75.57%

**Q.** What about the Activity [9] of the same compound?
**A.** Non-Toxic

**Q.** What about the Activity (HT-29 [10]) of the same compound?
**A.** 12.16%

**Q.** What about the Activity (HT-29 [11]) of the same compound?
**A.** 5.9%

**Q.** What about the viability at 1.25 µM (HT-29 [12]) of the same compound?
**A.** 81%

**Q.** And the Activity (HT-29 [13])?
**A.** Dose-Dependent Effect

**Q.** And the inhibition (HCT-116 [14])?
**A.** Dose-Dependent Effect

**Q.** What about the Activity [15] of the same compound?
**A.** Toxic

**Q.** What about the Activity (HT-29 [16]) of the same compound?
**A.** Dose-Dependent Effect

**Q.** What about the Activity (HT-29 [17]) of the same compound?
**A.** 3.14%

**Q.** What about the viability at 2.5 µM (HT-29 [18]) of the same compound?
**A.** 69.6%

**Q.** What about the inhibition (HT-29 [19]) of the same compound?
**A.** Active

**Q.** What about the Activity (HT-29 [20]) of the same compound?
**A.** 13.52%

**Q.** And the Activity (HT-29 [21])?
**A.** Dose-Dependent Effect

**Q.** And the Activity (HT-29 [22])?
**A.** 71.78%

**Q.** What about the Activity (HT-29 [23]) of the same compound?
**A.** 1.29%

**Q.** And the Activity (HT-29 [24])?
**A.** 8.51%

**Q.** What about the inhibition (HT-29 [25]) of the same compound?
**A.** Dose-Dependent Effect

**Q.** And the Activity (HT-29 [26])?
**A.** 7.67%

**Q.** And the inhibition (HCT-116 [27])?
**A.** Active

**Q.** And the Activity (HT-29 [28])?
**A.** 1.87%
